Results taken from publication PMC10488055, “Investigation of Potential cGMP-Specific PDE V and Aminopeptidase N Inhibitors of Allium ampeloprasum L. and Its Bioactive Components: Kinetic and Molecular Docking Studies” (International Journal of Molecular Sciences, 2023).
pIC50, pKi: −log10 of the molar value. Read-outs that look alike come from different tables or passages of the source.

What was measured:
PDE5 = PDE5 (Homo sapiens, UniProt O76074); assay: Kinetic assay (Lineweaver–Burk) on PDE5; assay type: biochemical; set-up: Vmax / Kcat: unit of the concentration uncertain;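 on Kcat: pure compound doses in mM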
Protocol: (§1) Lineweaver–Burk plots were employed to analyze the inhibition of the target enzyme. These plots were represented as 1/velocity (1/V) versus 1/substrate concentration (1/[S]) in the presence or absence of each sample (non-treated (black circle), 10 μg or 1 mM (orange circle), 20 μg or 2 mM (silver circle), 50 μg or 5 mM (yellow circle), and 100 μg or 10 mM (blue circle)) as an inhibitor against PDE5.
(§2) These reactions were conducted in a total volume of 80 μL. by a previously described method. The Michaelis–Menten constant (Km) and maximal velocity (Vmax) were calculated using the x and y intercepts, respectively. […] Additionally, the Kik and Kiv inhibition constants were calculated using previously described methods.

aminopeptidase N (APN) = target: T1, aminopeptidase N (APN) (Homo sapiens, UniProt P15144); assay: Aminopeptidase N (APN) enzyme activity assay with L-p-NA substrate; assay type: biochemical
T1 construct: purchased Sigma-Aldrich
T1 sequence (P15144 whole entry, species assumed): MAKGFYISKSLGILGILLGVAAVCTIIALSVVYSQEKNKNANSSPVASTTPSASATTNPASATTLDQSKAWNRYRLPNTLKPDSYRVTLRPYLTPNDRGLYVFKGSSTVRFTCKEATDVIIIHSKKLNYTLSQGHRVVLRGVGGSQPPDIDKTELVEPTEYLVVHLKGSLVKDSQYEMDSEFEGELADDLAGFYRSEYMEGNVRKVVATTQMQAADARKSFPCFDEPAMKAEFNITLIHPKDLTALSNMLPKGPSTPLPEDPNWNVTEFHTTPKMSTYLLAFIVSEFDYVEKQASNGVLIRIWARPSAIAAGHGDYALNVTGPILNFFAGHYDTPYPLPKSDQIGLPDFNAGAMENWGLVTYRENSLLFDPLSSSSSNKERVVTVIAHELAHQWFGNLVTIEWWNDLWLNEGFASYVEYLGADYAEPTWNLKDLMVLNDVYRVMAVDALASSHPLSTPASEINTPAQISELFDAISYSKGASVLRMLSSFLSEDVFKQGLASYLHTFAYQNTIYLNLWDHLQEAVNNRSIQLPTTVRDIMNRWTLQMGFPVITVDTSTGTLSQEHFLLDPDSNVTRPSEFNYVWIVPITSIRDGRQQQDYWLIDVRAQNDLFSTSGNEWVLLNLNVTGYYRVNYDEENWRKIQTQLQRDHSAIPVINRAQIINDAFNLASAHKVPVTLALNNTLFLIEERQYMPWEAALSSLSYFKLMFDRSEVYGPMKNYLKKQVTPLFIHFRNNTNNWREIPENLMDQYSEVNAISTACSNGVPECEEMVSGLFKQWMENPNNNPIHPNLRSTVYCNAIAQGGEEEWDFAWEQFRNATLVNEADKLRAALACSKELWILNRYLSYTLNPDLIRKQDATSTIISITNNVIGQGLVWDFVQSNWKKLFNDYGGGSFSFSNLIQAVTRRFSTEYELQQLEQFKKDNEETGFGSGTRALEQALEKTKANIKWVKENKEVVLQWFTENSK
Protocol: Figure 2 Effects of AAE and AAE-derived compounds on APN activity. […] The reaction was started by adding 20 μL enzyme solution (1 mU) and incubated for 60 min at 37 °C. The absorbance of samples were measured at 405 nm to determine the formation of p-nitroaniline. Each value is the mean ± SD of triplicate measurements. * p < 0.05 and ** p < 0.01, compared to each control group (Con). Con, control group treated enzyme only.
The activity of APN was determined according to Melzig et al.. Briefly, the enzyme substrate L-p-NA (2 mM) was dissolved in 50 mM N-(2-hydroxyethyl)piperazine-N’-2ethansulfonic acid (HEPES) buffer (pH 7.4) containing 154 mM NaCl. […] The reaction was started by adding 20 μL enzyme solution (approximately 1 mU in HEPES-buffer) and incubated for 60 min at 37 °C. The samples were measured spectrophotometrically at 405 nm to determine the formation of p-nitroanilmne. APN inhibitory activity (%) = ([Absorbance control without sample − Absorbance control with sample]/Absorbance control without sample) × 100

APN [1] = target: T2, APN (Homo sapiens, UniProt P15144); assay: Kinetic assay (Lineweaver–Burk) on APN; assay type: biochemical; details: for pKi: APN
T2 construct: purchased Sigma-Aldrich
T2 sequence (P15144 whole entry, species assumed): as above
Protocol: as §1, with “(1/(S))” for “(1/[S])”, “(blue” for “(orange”, “(green” for “(silver”, “(orange” for “(yellow”, “(purple” for “(blue”, “APN.” for “PDE5.”
as §2

APN [2] = target: T2, APN; set-up: method as in doi:10.1101/2021.02.26.433103; details: interacts with ALA474, ASP473, and SER476; cited from earlier work
[3] = PDE5 treated with compound 1 (unit uncertain)
[4] = PDE5 treated with compound 2 (unit uncertain)
[5] = PDE5 treated with compound 5 (unit uncertain)
[6] = PDE5 treated with compound 10 (unit uncertain)
[7] = APN treated with compound 10 mM

**Q.** What does the source list for `O=c1c(O)c(-c2ccc(O)c(O)c2)oc2cc(O)cc(O)c12` [QUE, quercetin]?
**A.** Kik/Kiv (PDE5; PDE5, ratio according to Yang et al. [27]): 9.4; Kcat (PDE5; [3]): 5473 ± 234 k s^−1; Vmax (PDE5; [3]): 0.724 ± 0.031 mU/min; Kcat (PDE5; [4]): 5187 ± 166 k s^−1; Vmax (PDE5; [4]): 0.686 ± 0.022 mU/min; Kcat (PDE5; [5]): 2893 ± 60 k s^−1; Vmax (PDE5; [5]): 0.383 ± 0.008 mU/min; Kcat (PDE5; [6]): 1478 ± 38 k s^−1; Vmax (PDE5; [6]): 0.195 ± 0.005 mU/min; inhibition type against PDE5 (PDE5; from changes of Km and 1/Vmax (Lineweaver–Burk), putative decision system [27]): uncompetitive-type; Km value of PDE5, fold of non-treated (PDE5; highest concentration): 0.69 fold; Vmax value of PDE5, fold of non-treated group (PDE5; highest concentration, non-treated 1.039 mU/min = 1.0-fold): 0.19 fold; pIC50 (aminopeptidase N (APN)): < 2.00; inhibition of APN in in vitro enzyme assay (aminopeptidase N (APN); at the highest concentration): 33%; enzymatic activity of APN (aminopeptidase N (APN); treatment with 10 mM, without sample 0.38 U): 0.25 ± 0.01 U; Kcat (APN [1]; APN treated with compound 1 mM): 368.1 ± 6.2 s⁻¹; Vmax (APN [1]; APN treated with compound 1 mM): 0.297 ± 0.005 mU/min; Kcat (APN [1]; APN treated with compound 2 mM): 316.6 ± 7.4 s⁻¹; Vmax (APN [1]; APN treated with compound 2 mM): 0.255 ± 0.006 mU/min; Kcat (APN [1]; APN treated with compound 5 mM): 244.1 ± 3.7 s⁻¹; Vmax (APN [1]; APN treated with compound 5 mM): 0.197 ± 0.003 mU/min; Kcat (APN [1]; [7]): 212.3 ± 2.5 s⁻¹; Vmax (APN [1]; [7]): 0.171 ± 0.002 mU/min; pKi (APN [1]; calculated by method of ref 27, read-out: Kiv): 1.93; pKi (APN [1]; read-out: Ki): 1.88; inhibition type against APN (APN [1]; from Kik/Kiv ratio, new decision system [27]): noncompetitive-type; Vmax value of APN, fold of non-treated group (APN [1]; highest concentration, non-treated 0.316 mU/min = 1.0-fold): 0.54 fold; interaction energy with APN (docking) (APN [2]): -6.9 kcal/mol
